Test results from PubChem BioAssay (NCI).
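Values below derive from 48-hour exposures of cells grown in 96-well plates, with endpoints linearly interpolated between the two concentrations bracketing the appropriate inhibition level. GI50 = concentration required for 50% inhibition of growth. TGI denotes the concentration required for complete inhibition of growth.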

Experiments:
Test in all cases: NCI-60 cell line screen, 48 h
786-0 renal = tested on: 786-0 renal
A498 renal = tested on: A498 renal
A549 NSCLC = tested on: A549 NSCLC
ACHN renal = tested on: ACHN renal
BT-549 breast = tested on: BT-549 breast
CAKI-1 renal = tested on: CAKI-1 renal
CCRF-CEM leukemia = tested on: CCRF-CEM leukemia
COLO 205 colon = tested on: COLO 205 colon
DU-145 prostate = tested on: DU-145 prostate
EKVX NSCLC = tested on: EKVX NSCLC
HCC-2998 colon = tested on: HCC-2998 colon
HCT-116 colon = tested on: HCT-116 colon
HCT-15 colon = tested on: HCT-15 colon
HL-60(TB) leukemia = tested on: HL-60(TB) leukemia
HOP-62 NSCLC = tested on: HOP-62 NSCLC
HOP-92 NSCLC = tested on: HOP-92 NSCLC
HS 578T breast = tested on: HS 578T breast
HT29 colon = tested on: HT29 colon
IGROV1 ovarian = tested on: IGROV1 ovarian
K-562 leukemia = tested on: K-562 leukemia
KM12 colon = tested on: KM12 colon
LOX IMVI melanoma = tested on: LOX IMVI melanoma
M14 melanoma = tested on: M14 melanoma
MALME-3M melanoma = tested on: MALME-3M melanoma
MCF7 breast = tested on: MCF7 breast
MDA-MB-231 breast = tested on: MDA-MB-231 breast
MDA-MB-435 = tested on: MDA-MB-435
NCI-H226 lung = tested on: NCI-H226 lung
NCI-H23 lung = tested on: NCI-H23 lung
NCI-H460 lung = tested on: NCI-H460 lung
NCI-H522 lung = tested on: NCI-H522 lung
NCI/ADR-RES ovarian = tested on: NCI/ADR-RES ovarian
OVCAR-3 ovarian = tested on: OVCAR-3 ovarian
OVCAR-4 ovarian = tested on: OVCAR-4 ovarian
OVCAR-5 ovarian = tested on: OVCAR-5 ovarian
OVCAR-8 ovarian = tested on: OVCAR-8 ovarian
PC-3 prostate = tested on: PC-3 prostate
RXF 393 renal = tested on: RXF 393 renal
SF-268 CNS = tested on: SF-268 CNS
SF-295 CNS = tested on: SF-295 CNS
SF-539 CNS = tested on: SF-539 CNS
SK-MEL-2 melanoma = tested on: SK-MEL-2 melanoma
SK-MEL-28 melanoma = tested on: SK-MEL-28 melanoma
SK-MEL-5 melanoma = tested on: SK-MEL-5 melanoma
SK-OV-3 ovarian = tested on: SK-OV-3 ovarian
SN12C renal = tested on: SN12C renal
SNB-19 CNS = tested on: SNB-19 CNS
SNB-75 CNS = tested on: SNB-75 CNS
SR leukemia = tested on: SR leukemia
SW-620 colon = tested on: SW-620 colon
T-47D breast = tested on: T-47D breast
TK-10 renal = tested on: TK-10 renal
U251 CNS = tested on: U251 CNS
UACC-257 melanoma = tested on: UACC-257 melanoma
UACC-62 melanoma = tested on: UACC-62 melanoma
UO-31 renal = tested on: UO-31 renal

In the case of COc1cc(-c2nc3sccn3c2-c2ccnc(NCCNS(=O)(=O)c3ccc(F)cc3)n2)ccc1F, the GI50 (786-0 renal) is reported as 503 nM, the TGI (786-0 renal) is reported as > 100 µM and the GI50 (A498 renal) is reported as 2400 nM. The TGI (A498 renal) was > 100 µM, the GI50 (A549 NSCLC) was 2440 nM and the TGI (A549 NSCLC) was > 100 µM. For the same molecule, the GI50 (ACHN renal) was 1530 nM, the TGI (ACHN renal) was > 100 µM and the GI50 (BT-549 breast) was 292 nM. The TGI (BT-549 breast) was > 100 µM, the GI50 (CAKI-1 renal) was 2530 nM and the TGI (CAKI-1 renal) was > 100 µM. For the same molecule, the GI50 (CCRF-CEM leukemia) was 643 nM, the TGI (CCRF-CEM leukemia) was > 100 µM and the GI50 (COLO 205 colon) was 1980 nM. The TGI (COLO 205 colon) was > 100 µM, the GI50 (DU-145 prostate) was 2420 nM and the TGI (DU-145 prostate) was > 100 µM. For the same molecule, the GI50 (EKVX NSCLC) was 3.4 µM, the TGI (EKVX NSCLC) was > 100 µM and the GI50 (HCC-2998 colon) was 3.21 µM. For the same molecule, the TGI (HCC-2998 colon) was > 100 µM, the GI50 (HCT-116 colon) was 362 nM and the TGI (HCT-116 colon) was > 100 µM. The GI50 (HCT-15 colon) was 2330 nM, the TGI (HCT-15 colon) was > 100 µM and the GI50 (HL-60(TB) leukemia) was 3.4 µM. For the same molecule, the TGI (HL-60(TB) leukemia) was > 100 µM, the GI50 (HOP-62 NSCLC) was 4.82 µM and the TGI (HOP-62 NSCLC) was > 100 µM. The GI50 (HOP-92 NSCLC) was 2490 nM, the TGI (HOP-92 NSCLC) was > 100 µM and the GI50 (HS 578T breast) was 1880 nM. The TGI (HS 578T breast) was > 100 µM, the GI50 (HT29 colon) was 1640 nM and the TGI (HT29 colon) was > 100 µM. For the same molecule, the GI50 (IGROV1 ovarian) was 1690 nM, the TGI (IGROV1 ovarian) was > 100 µM and the GI50 (K-562 leukemia) was 1530 nM. For the same molecule, the TGI (K-562 leukemia) was > 100 µM, the GI50 (KM12 colon) was 1900 nM and the TGI (KM12 colon) was > 100 µM. The GI50 (LOX IMVI melanoma) was 1650 nM, the TGI (LOX IMVI melanoma) was > 100 µM and the GI50 (M14 melanoma) was 499 nM. The TGI (M14 melanoma) was > 100 µM, the GI50 (MALME-3M melanoma) was 2070 nM and the TGI (MALME-3M melanoma) was 7.38 µM. The GI50 (MCF7 breast) was 2000 nM, the TGI (MCF7 breast) was > 100 µM and the GI50 (MDA-MB-231 breast) was 2350 nM. The TGI (MDA-MB-231 breast) was > 100 µM, the GI50 (MDA-MB-435) was 1110 nM and the TGI (MDA-MB-435) was 5.5 µM. The GI50 (NCI-H226 lung) was 1950 nM, the TGI (NCI-H226 lung) was 6.05 µM and the GI50 (NCI-H23 lung) was 2960 nM. The TGI (NCI-H23 lung) was > 100 µM, the GI50 (NCI-H460 lung) was 2440 nM and the TGI (NCI-H460 lung) was > 100 µM. For the same molecule, the GI50 (NCI-H522 lung) was 2120 nM, the TGI (NCI-H522 lung) was > 100 µM and the GI50 (NCI/ADR-RES ovarian) was 1940 nM. For the same molecule, the TGI (NCI/ADR-RES ovarian) was > 100 µM, the GI50 (OVCAR-3 ovarian) was 3.23 µM and the TGI (OVCAR-3 ovarian) was > 100 µM. The GI50 (OVCAR-4 ovarian) was 3.4 µM, the TGI (OVCAR-4 ovarian) was > 100 µM and the GI50 (OVCAR-5 ovarian) was 6.51 µM. For the same molecule, the TGI (OVCAR-5 ovarian) was > 100 µM, the GI50 (OVCAR-8 ovarian) was 2120 nM and the TGI (OVCAR-8 ovarian) was > 100 µM. The GI50 (PC-3 prostate) was 946 nM, the TGI (PC-3 prostate) was > 100 µM and the GI50 (RXF 393 renal) was 750 nM. The TGI (RXF 393 renal) was 8.2 µM, the GI50 (SF-268 CNS) was 2780 nM and the TGI (SF-268 CNS) was > 100 µM. For the same molecule, the GI50 (SF-295 CNS) was 2870 nM, the TGI (SF-295 CNS) was > 100 µM and the GI50 (SF-539 CNS) was 4.86 µM. The TGI (SF-539 CNS) was > 100 µM, the GI50 (SK-MEL-2 melanoma) was 2240 nM and the TGI (SK-MEL-2 melanoma) was 7.27 µM. The GI50 (SK-MEL-28 melanoma) was 3.28 µM, the TGI (SK-MEL-28 melanoma) was > 100 µM and the GI50 (SK-MEL-5 melanoma) was 1280 nM. For the same molecule, the TGI (SK-MEL-5 melanoma) was 2630 nM, the GI50 (SK-OV-3 ovarian) was 3.26 µM and the TGI (SK-OV-3 ovarian) was > 100 µM. The GI50 (SN12C renal) was 1890 nM, the TGI (SN12C renal) was > 100 µM and the GI50 (SNB-19 CNS) was 5.33 µM. The TGI (SNB-19 CNS) was > 100 µM, the GI50 (SNB-75 CNS) was 1540 nM and the TGI (SNB-75 CNS) was > 100 µM. For the same molecule, the GI50 (SR leukemia) was 2510 nM, the TGI (SR leukemia) was > 100 µM and the GI50 (SW-620 colon) was 5.05 µM. For the same molecule, the TGI (SW-620 colon) was > 100 µM, the GI50 (T-47D breast) was 634 nM and the TGI (T-47D breast) was 35.9 µM. For the same molecule, the GI50 (TK-10 renal) was 6.27 µM, the TGI (TK-10 renal) was > 100 µM and the GI50 (U251 CNS) was 4.23 µM. For the same molecule, the TGI (U251 CNS) was > 100 µM, the GI50 (UACC-257 melanoma) was 3.88 µM and the TGI (UACC-257 melanoma) was > 100 µM. It also gave a GI50 (UACC-62 melanoma) of 688 nM, a TGI (UACC-62 melanoma) of 2550 nM and a GI50 (UO-31 renal) of 1290 nM. For the same molecule, the TGI (UO-31 renal) was > 100 µM.
